Structures can show the parent of a compound that is named as a salt.
Tested on: mice
Test: Neuropharmacological Assay (SmartCube): automated behavioral signature of compound-treated mice compared with a database of reference drug classes
Assay type: in vivo
Conditions: for AD / AG / AN / CE / HL / MS / PS / SH / AP / AX / UK: SmartCube class probability, 3.0 mg/kg i.p., 15 min before test; for MED / minimal effective dose: minimal effective dose: dose having 45% or more total activity in SmartCube, i.p., if only one dose tested, that dose is shown; for minimal effective dose: Mus musculus, ip, read-out: MED
Method in brief: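 Mice dosed i.p. 15 min before SmartCube testing, with compound in N-methyl-2-pyrrolidone/polyethylene glycol/propylene glycol. Video-captured behaviour is compared with a reference-drug signature database to give per-class probabilities, reported at 3.0 mg/kg. MED, from doses usually 0.3–10 mg/kg, is the lowest dose giving ≥45% total activity.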

Structure (SMILES) | AD | AG | AN | CE | HL | MS | PS | SH | AP (hydrochloride, 3 mg/kg) | AX (hydrochloride, 3 mg/kg) | UK (hydrochloride, 3 mg/kg) | MED (hydrochloride) [mpk] | UK | AP | AX | further results
CNC1CCCc2cscc2C1 (single isomer, unassigned) [Compound 169, N-methyl-5,6,7,8-tetrahydro-4H-cyclohepta[c]thiophen-5-amine hydrochloride] | ND (^ <4%) | ND (^ <4%) | ND (^ <4%) | ND (^ <4%) | ND (^ <4%) | ND (^ <4%) | ND (^ <4%) | ND (^ <4%) | ND (^ <4%) | ND (^ <4%) | ++ (≥24%) | 3 | – | – | – | –
CNC1CCCc2cscc2C1 (single isomer, unassigned) [Compound 170, N-methyl-5,6,7,8-tetrahydro-4H-cyclohepta[c]thiophen-5-amine hydrochloride] | ND (^ <4%) | ND (^ <4%) | ND (^ <4%) | ND (^ <4%) | ND (^ <4%) | ND (^ <4%) | ND (^ <4%) | ND (^ <4%) | +++ (≥49%) | ++ (≥24%) | ND (^ <4%) | 1 | – | – | – | –
CCNC1CCc2cscc2C1 (single isomer, unassigned) [Compound 171, N-ethyl-4,5,6,7-tetrahydro-2-benzothiophen-5-amine hydrochloride] | ND (^ <4%) | ND (^ <4%) | ND (^ <4%) | ND (^ <4%) | ND (^ <4%) | ND (^ <4%) | ND (^ <4%) | ND (^ <4%) | ++++ (≥74%) | ND (^ <4%) | – | 3 | ND (^ <4%) | – | – | –
CCNC1CCc2cscc2C1 (single isomer, unassigned) [Compound 172, N-ethyl-4,5,6,7-tetrahydro-2-benzothiophen-5-amine hydrochloride] | ND (^ <4%) | ND (^ <4%) | ND (^ <4%) | ND (^ <4%) | ND (^ <4%) | ND (^ <4%) | ND (^ <4%) | ND (^ <4%) | ND (^ <4%) | ++++ (≥74%) | – | 1 | ND (^ <4%) | – | – | –
CNC1CCc2scc(C#N)c2C1 (single isomer, unassigned) [Compound 174, 5-(methylamino)-4,5,6,7-tetrahydrobenzothiophene-3-carbonitrile hydrochloride] | ND (^ <4%) | ND (^ <4%) | ND (^ <4%) | ND (^ <4%) | ND (^ <4%) | ND (^ <4%) | ND (^ <4%) | + (≥4%) | – | ND (^ <4%) | – | 1 | ND (^ <4%) | ND (^ <4%) | – | –
CNC1CCc2scc(C#N)c2C1 (single isomer, unassigned) [Compound 175, 5-(methylamino)-4,5,6,7-tetrahydrobenzothiophene-3-carbonitrile hydrochloride] | ND (^ <4%) | ND (^ <4%) | ND (^ <4%) | ND (^ <4%) | ND (^ <4%) | ND (^ <4%) | ND (^ <4%) | + (≥4%) | – | +++ (≥49%) | – | 3 | ND (^ <4%) | ND (^ <4%) | – | –
N#Cc1csc2c1CC(N)CC2 (single isomer, unassigned) [Compound 176, 5-amino-4,5,6,7-tetrahydrobenzo[b]thiophene-3-carbonitrile hydrochloride] | ND (^ <4%) | ND (^ <4%) | ND (^ <4%) | ND (^ <4%) | ND (^ <4%) | ND (^ <4%) | ND (^ <4%) | ND (^ <4%) | – | – | ND (^ <4%) | – | – | ND (^ <4%) | ND (^ <4%) | minimal effective dose: > 3 mg/kg
N#Cc1csc2c1CC(N)CC2 (single isomer, unassigned) [Compound 177, 5-amino-4,5,6,7-tetrahydrobenzo[b]thiophene-3-carbonitrile hydrochloride] | ND (^ <4%) | ND (^ <4%) | ND (^ <4%) | ND (^ <4%) | ND (^ <4%) | ND (^ <4%) | ND (^ <4%) | ND (^ <4%) | – | – | ++++ (≥74%) | 3 | – | ND (^ <4%) | ND (^ <4%) | –
CNC1(C)CCc2sccc2C1 (single isomer, unassigned) [Compound 178, N, 5-dimethyl-6,7-dihydro-4H-benzothiophen-5-amine hydrochloride] | – | ND (^ <4%) | – | ND (^ <4%) | ND (^ <4%) | ND (^ <4%) | – | ND (^ <4%) | – | – | – | 1 | ND (^ <4%) | ND (^ <4%) | ND (^ <4%) | AD (hydrochloride, 3 mg/kg): + (≥4%); AN (hydrochloride, 3 mg/kg): ND (^ <4%); PS (hydrochloride, 3 mg/kg): ++++ (≥74%)
CNC1(C)CCc2sccc2C1 (single isomer, unassigned) [Compound 179, N, 5-dimethyl-6,7-dihydro-4H-benzothiophen-5-amine hydrochloride] | – | ND (^ <4%) | – | ND (^ <4%) | ND (^ <4%) | ND (^ <4%) | – | ND (^ <4%) | – | – | – | 3 | ND (^ <4%) | ND (^ <4%) | ND (^ <4%) | AD (hydrochloride, 3 mg/kg): +++ (≥49%); AN (hydrochloride, 3 mg/kg): + (≥4%); PS (hydrochloride, 3 mg/kg): + (≥4%)
CNC1CCc2sc(C3CC3)cc2C1 (single isomer, unassigned) [Compound 183, 2-cyclopropyl-N-methyl-4,5,6,7-tetrahydrobenzothiophen-5-amine hydrochloride] | ND (^ <4%) | ND (^ <4%) | ND (^ <4%) | ND (^ <4%) | ND (^ <4%) | ND (^ <4%) | ND (^ <4%) | ND (^ <4%) | – | – | – | – | ++ (≥24%) | ND (^ <4%) | ND (^ <4%) | minimal effective dose: 3 mg/kg
CNC1CCc2sc(C3CC3)cc2C1 (single isomer, unassigned) [Compound 184, 2-cyclopropyl-N-methyl-4,5,6,7-tetrahydrobenzothiophen-5-amine hydrochloride] | ND (^ <4%) | ND (^ <4%) | ND (^ <4%) | ND (^ <4%) | ND (^ <4%) | ND (^ <4%) | ND (^ <4%) | ND (^ <4%) | – | – | – | >3 | ++ (≥24%) | ND (^ <4%) | ND (^ <4%) | –
NC1CCc2scc(F)c2C1 (single isomer, unassigned) [Compound 191, 3-fluoro-4,5,6,7-tetrahydrobenzothiophen-5-amine hydrochloride] | – | – | – | – | ND (^ <4%) | ND (^ <4%) | – | ND (^ <4%) | + (≥4%) | – | ND (^ <4%) | 1 | – | – | ND (^ <4%) | AD (hydrochloride, 3 mg/kg): ++ (≥24%); AG (hydrochloride, 3 mg/kg): + (≥4%); AN (hydrochloride, 3 mg/kg): + (≥4%); CE (hydrochloride, 3 mg/kg): + (≥4%); PS (hydrochloride, 3 mg/kg): + (≥4%)
NC1CCc2scc(F)c2C1 (single isomer, unassigned) [Compound 192, 3-fluoro-4,5,6,7-tetrahydrobenzothiophen-5-amine hydrochloride] | – | – | – | – | ND (^ <4%) | ND (^ <4%) | – | ND (^ <4%) | ND (^ <4%) | – | +++ (≥49%) | 3 | – | – | ND (^ <4%) | AD (hydrochloride, 3 mg/kg): ND (^ <4%); AG (hydrochloride, 3 mg/kg): ND (^ <4%); AN (hydrochloride, 3 mg/kg): ND (^ <4%); CE (hydrochloride, 3 mg/kg): ND (^ <4%); PS (hydrochloride, 3 mg/kg): ND (^ <4%)
CNC1CCc2scc(C(F)(F)F)c2C1.Cl (single isomer, unassigned) [Compound 194, N-methyl-3-(trifluoromethyl)-4,5,6,7-tetrahydrobenzothiophen-5-amine hydrochloride] | ND (^ <4%) | ND (^ <4%) | ND (^ <4%) | ND (^ <4%) | ND (^ <4%) | ND (^ <4%) | ND (^ <4%) | ND (^ <4%) | ++++ (≥74%) | – | ND (^ <4%) | – | – | – | ND (^ <4%) | minimal effective dose: 3 mg/kg
CNC1CCc2scc(C(F)(F)F)c2C1.Cl (single isomer, unassigned) [Compound 195, N-methyl-3-(trifluoromethyl)-4,5,6,7-tetrahydrobenzothiophen-5-amine hydrochloride] | ND (^ <4%) | ND (^ <4%) | ND (^ <4%) | ND (^ <4%) | ND (^ <4%) | ND (^ <4%) | ND (^ <4%) | ND (^ <4%) | ND (^ <4%) | – | + (≥4%) | >3 | – | – | ND (^ <4%) | –
